Measurements as given in ChEMBL document CHEMBL5465560, “Selectivity Literature for EUbOPEN Chemogenomic Library” (2024).

What was measured:
[1] = target: Serine/threonine-protein kinase PAK 6 (Homo sapiens) (UniProt Q9NQU5); test: Selectivity interaction (KinomeScan (DiscoverX)) EUB0000229b PAK6; conditions: at 10 µM
[2] = target: Tyrosine-protein kinase HCK (Homo sapiens) (UniProt P08631); test: Selectivity interaction (KinomeScan (DiscoverX)) EUB0000045b HCK
[3] = target: Tyrosine-protein kinase Lck (Homo sapiens, UniProt P06239); conditions: at 10 µM
[4] = target: T1, Cyclin-dependent kinase-like 5 (Homo sapiens) (UniProt O76039); test: Selectivity interaction (KinomeScan (DiscoverX)) EUB0000092b CDKL5; conditions: at 10 µM
T1 sequence (whole entry): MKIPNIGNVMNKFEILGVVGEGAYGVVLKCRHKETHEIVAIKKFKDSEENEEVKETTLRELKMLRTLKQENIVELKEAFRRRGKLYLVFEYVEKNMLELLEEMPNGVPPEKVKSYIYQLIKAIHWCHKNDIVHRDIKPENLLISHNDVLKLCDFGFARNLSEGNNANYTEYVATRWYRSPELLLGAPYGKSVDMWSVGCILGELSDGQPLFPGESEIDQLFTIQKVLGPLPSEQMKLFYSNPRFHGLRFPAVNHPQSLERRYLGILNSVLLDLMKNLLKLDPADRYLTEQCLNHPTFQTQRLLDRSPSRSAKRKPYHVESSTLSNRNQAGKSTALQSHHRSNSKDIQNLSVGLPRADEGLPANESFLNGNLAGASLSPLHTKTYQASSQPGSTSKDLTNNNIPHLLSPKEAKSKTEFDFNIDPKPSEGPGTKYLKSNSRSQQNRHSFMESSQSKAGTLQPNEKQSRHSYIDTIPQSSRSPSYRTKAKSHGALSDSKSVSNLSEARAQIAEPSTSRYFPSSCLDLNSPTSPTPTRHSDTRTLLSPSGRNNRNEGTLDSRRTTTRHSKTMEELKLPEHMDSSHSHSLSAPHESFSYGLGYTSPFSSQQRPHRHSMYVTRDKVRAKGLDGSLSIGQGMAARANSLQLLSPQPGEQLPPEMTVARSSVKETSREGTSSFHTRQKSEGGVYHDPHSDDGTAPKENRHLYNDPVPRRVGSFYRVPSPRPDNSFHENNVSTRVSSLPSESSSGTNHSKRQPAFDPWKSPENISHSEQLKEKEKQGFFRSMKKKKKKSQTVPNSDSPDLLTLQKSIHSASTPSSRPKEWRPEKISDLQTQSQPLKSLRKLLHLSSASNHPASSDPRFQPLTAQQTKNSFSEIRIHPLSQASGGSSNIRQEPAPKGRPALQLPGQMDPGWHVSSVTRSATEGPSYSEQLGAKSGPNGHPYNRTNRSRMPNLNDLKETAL

[5] = target: T2, 3-phosphoinositide-dependent protein kinase 1 (Homo sapiens) (UniProt O15530); test: Selectivity interaction (KinomeScan (DiscoverX)) EUB0000092b PDPK1; conditions: at 10 µM
T2 sequence (whole entry): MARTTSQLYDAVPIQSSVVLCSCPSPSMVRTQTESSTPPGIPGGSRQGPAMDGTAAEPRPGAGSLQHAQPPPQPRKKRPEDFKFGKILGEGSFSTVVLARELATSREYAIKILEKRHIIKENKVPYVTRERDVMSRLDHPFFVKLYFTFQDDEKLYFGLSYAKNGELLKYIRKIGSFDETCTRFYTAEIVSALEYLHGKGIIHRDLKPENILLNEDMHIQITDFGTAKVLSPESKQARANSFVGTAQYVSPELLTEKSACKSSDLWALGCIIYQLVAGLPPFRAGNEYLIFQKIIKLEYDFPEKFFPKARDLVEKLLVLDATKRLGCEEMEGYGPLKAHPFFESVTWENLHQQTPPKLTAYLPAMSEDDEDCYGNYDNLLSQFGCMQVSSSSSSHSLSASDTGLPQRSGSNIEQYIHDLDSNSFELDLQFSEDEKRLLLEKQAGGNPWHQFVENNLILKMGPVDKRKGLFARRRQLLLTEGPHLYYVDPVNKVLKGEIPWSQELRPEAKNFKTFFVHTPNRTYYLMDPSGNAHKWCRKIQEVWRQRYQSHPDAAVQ

[6] = target: T3, Ephrin type-A receptor 3 (Homo sapiens) (UniProt P29320); test: Selectivity interaction (Ambit KINOMEscan and KiNATiv profiling in Jurkat cells) EUB0000090b EPHA3; assay type: cell-based; conditions: at 1 µM
T3 sequence (whole entry): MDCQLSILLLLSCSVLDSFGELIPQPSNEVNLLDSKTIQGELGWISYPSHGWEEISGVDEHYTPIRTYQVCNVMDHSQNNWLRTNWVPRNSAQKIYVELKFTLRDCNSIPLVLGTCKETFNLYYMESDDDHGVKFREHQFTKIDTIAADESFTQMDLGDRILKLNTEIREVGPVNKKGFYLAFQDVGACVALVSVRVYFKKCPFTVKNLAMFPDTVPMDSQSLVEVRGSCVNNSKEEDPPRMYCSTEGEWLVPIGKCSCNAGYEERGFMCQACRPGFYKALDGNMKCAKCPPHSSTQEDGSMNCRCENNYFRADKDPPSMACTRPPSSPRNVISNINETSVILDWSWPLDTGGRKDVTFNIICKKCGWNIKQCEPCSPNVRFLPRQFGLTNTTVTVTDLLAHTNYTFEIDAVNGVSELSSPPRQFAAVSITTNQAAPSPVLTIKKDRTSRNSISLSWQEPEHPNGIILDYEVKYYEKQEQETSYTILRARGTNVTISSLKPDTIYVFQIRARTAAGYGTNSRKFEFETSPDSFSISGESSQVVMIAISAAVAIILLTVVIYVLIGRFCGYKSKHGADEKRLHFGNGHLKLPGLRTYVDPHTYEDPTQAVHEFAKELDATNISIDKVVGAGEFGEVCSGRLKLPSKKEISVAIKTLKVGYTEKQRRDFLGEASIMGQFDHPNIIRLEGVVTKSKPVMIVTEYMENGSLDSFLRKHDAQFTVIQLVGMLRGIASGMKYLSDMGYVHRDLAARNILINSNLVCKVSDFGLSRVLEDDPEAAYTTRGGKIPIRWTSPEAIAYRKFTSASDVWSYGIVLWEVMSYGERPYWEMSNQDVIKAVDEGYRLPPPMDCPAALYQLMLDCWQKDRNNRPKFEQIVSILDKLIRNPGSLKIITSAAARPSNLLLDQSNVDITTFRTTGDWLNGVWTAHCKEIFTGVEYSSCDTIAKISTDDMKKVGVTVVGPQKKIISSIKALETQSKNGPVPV

Chain of Tyrosine-protein kinase HCK (Homo sapiens) (P08631 2-526 limits assumed): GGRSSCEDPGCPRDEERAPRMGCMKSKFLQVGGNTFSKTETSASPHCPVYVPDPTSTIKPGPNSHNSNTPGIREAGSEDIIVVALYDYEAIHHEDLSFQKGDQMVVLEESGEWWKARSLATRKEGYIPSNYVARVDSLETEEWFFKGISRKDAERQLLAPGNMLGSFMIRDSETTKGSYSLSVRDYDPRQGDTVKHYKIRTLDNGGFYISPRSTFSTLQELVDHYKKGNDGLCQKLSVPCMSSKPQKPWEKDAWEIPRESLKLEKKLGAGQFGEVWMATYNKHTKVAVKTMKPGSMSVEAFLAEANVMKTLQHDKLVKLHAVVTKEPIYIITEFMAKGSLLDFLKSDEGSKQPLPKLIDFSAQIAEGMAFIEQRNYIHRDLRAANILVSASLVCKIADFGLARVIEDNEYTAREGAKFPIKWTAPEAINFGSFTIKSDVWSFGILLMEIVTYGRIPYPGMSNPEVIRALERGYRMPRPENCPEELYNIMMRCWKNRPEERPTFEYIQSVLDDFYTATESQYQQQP
Chain of Tyrosine-protein kinase Lck (P06239 2-509 limits assumed): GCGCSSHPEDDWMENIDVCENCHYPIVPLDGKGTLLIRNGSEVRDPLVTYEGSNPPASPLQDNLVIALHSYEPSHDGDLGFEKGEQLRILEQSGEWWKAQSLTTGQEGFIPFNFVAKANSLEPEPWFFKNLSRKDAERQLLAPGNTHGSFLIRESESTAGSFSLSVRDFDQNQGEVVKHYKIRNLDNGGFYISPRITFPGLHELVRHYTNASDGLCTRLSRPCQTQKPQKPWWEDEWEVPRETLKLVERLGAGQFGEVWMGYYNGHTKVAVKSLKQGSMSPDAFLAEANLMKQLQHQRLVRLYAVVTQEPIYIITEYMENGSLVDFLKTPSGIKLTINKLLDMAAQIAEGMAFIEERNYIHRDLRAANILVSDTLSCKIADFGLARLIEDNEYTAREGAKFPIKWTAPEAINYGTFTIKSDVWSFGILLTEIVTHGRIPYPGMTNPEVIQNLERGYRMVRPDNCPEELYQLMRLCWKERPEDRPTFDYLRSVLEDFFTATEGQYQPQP
Chain of Serine/threonine-protein kinase PAK 6 (Homo sapiens) (Q9NQU5 whole entry, looked up): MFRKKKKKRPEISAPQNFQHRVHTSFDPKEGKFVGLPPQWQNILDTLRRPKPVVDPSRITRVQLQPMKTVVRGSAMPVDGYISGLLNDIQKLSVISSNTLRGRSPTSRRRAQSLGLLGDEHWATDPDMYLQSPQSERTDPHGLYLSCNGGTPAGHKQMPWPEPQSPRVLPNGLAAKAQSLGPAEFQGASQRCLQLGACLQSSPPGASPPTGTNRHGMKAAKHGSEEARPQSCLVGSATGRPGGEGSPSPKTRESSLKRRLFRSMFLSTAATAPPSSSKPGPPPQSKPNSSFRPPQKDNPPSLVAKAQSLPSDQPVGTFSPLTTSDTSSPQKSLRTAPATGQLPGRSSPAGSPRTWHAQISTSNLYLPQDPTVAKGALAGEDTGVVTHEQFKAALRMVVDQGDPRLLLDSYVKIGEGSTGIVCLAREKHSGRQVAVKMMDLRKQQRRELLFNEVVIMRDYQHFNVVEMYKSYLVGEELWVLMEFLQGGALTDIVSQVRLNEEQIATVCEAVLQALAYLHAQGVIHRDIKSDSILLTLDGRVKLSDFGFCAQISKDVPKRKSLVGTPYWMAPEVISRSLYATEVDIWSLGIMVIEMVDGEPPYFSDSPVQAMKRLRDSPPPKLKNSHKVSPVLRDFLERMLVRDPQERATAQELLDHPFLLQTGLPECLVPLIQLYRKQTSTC

`COc1cc(N(C)c2ccnc3ccc(C(F)(F)F)cc23)cc(OC)c1OC` showed a % binding [1] of 96%.

With `C=CC(=O)Nc1cc(-n2c(=O)ccc3cnc4ccc(-c5ccc(NS(C)(=O)=O)cc5)cc4c32)ccc1C` the % of control ([2]; at 1 µM) was 97% and the % of control ([2]; at 10 µM) was 100%.

Compound `Cc1cc([C@@H](C)Nc2ccccc2C(=O)O)c2nc(N3CCOCC3)cc(=O)n2c1` [AZD-6482] has a % of control [3] of 97%.

Compound `CCC(=O)N1CCN(c2ccc(-n3c(=O)ccc4cnc5ccc(-c6cnc7ccccc7c6)cc5c43)cc2C(F)(F)F)CC1` has a % of control [4] of 100% and a % of control [5] of 100%.

For `CN(C)C/C=C/C(=O)Nc1ccc(C(=O)N2CCCC(Nc3ncc(Cl)c(-c4c[nH]c5ccccc45)n3)C2)cc1` (configuration not stated), the % of control [6] was 89%.
